Active and inactive are the calls of the source. Rule as the data show it, for most assays here: actives have a measured Kd and inactives only a lower limit.

The target in assay [1] is 26S proteasome regulatory subunit 6B (Homo sapiens, UniProt P43686).
Assay [2] deals with T1, Ribosyldihydronicotinamide dehydrogenase [quinone] (Homo sapiens, UniProt P16083).
T1 sequence (P16083 whole entry): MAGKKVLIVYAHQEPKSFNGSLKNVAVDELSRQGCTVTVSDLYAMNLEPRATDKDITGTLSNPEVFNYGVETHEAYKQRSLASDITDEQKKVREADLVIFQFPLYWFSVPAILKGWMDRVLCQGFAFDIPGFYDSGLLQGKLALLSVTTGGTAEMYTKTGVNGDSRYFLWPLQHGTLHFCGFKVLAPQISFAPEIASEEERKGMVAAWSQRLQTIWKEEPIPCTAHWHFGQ

Assay [3] concerns the target Eukaryotic translation initiation factor 2-alpha kinase 1 (Homo sapiens, UniProt Q9BQI3).
Assay [4] has as its target T2, Bifunctional phosphoribosylaminoimidazole carboxylase/phosphoribosylaminoimidazole succinocarboxamide synthetase (Homo sapiens, UniProt P22234).
T2 sequence (P22234 whole entry): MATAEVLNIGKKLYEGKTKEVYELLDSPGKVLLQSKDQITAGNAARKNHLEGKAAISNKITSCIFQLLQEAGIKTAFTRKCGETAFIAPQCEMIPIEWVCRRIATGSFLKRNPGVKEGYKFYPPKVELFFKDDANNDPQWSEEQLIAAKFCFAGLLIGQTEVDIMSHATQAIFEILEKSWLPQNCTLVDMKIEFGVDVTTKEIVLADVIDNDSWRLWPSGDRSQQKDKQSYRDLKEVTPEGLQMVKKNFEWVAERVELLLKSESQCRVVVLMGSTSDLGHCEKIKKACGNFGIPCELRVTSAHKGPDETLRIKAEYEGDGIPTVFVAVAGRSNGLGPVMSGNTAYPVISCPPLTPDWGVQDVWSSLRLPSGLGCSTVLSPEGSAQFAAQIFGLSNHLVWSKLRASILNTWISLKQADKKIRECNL

In assay [5] the target is Tyrosine-protein kinase SYK (Homo sapiens, UniProt P43405).
The target in the next assay is T3, Ephrin type-B receptor 2 (Homo sapiens, UniProt P29323).
T3 sequence (P29323 whole entry): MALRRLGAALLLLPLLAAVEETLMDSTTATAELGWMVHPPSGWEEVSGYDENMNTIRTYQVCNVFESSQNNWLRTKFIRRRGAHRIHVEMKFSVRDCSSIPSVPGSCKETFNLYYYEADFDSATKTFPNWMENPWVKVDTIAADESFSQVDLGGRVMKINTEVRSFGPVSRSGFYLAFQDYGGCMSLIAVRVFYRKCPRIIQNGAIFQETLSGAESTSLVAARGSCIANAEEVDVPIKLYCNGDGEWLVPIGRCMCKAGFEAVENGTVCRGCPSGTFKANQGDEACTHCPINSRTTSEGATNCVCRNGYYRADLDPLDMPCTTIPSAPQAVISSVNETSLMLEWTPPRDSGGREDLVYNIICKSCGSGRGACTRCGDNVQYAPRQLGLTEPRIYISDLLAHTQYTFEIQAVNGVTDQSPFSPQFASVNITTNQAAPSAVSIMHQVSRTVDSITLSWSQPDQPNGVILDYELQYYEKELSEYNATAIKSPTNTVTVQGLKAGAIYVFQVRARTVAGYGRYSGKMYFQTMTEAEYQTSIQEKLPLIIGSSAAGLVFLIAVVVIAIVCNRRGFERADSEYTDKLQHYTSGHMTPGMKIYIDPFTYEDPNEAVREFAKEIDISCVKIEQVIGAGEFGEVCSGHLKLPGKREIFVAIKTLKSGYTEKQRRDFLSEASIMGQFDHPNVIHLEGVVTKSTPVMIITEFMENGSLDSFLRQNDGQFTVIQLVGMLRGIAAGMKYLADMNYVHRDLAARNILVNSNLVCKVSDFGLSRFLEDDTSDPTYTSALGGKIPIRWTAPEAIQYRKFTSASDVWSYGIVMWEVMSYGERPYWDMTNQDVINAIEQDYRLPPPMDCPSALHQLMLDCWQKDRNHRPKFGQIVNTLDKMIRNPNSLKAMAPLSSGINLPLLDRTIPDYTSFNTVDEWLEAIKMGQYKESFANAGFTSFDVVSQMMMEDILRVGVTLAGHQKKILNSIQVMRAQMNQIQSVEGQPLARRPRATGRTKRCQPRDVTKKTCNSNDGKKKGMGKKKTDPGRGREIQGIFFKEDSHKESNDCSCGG

In assay [6] the target is Cyclin-dependent kinase 13 (Homo sapiens, UniProt Q14004).
Assay [7] concerns the target T4, Serine/threonine-protein kinase D3 (Homo sapiens, UniProt O94806).
T4 sequence (O94806 whole entry): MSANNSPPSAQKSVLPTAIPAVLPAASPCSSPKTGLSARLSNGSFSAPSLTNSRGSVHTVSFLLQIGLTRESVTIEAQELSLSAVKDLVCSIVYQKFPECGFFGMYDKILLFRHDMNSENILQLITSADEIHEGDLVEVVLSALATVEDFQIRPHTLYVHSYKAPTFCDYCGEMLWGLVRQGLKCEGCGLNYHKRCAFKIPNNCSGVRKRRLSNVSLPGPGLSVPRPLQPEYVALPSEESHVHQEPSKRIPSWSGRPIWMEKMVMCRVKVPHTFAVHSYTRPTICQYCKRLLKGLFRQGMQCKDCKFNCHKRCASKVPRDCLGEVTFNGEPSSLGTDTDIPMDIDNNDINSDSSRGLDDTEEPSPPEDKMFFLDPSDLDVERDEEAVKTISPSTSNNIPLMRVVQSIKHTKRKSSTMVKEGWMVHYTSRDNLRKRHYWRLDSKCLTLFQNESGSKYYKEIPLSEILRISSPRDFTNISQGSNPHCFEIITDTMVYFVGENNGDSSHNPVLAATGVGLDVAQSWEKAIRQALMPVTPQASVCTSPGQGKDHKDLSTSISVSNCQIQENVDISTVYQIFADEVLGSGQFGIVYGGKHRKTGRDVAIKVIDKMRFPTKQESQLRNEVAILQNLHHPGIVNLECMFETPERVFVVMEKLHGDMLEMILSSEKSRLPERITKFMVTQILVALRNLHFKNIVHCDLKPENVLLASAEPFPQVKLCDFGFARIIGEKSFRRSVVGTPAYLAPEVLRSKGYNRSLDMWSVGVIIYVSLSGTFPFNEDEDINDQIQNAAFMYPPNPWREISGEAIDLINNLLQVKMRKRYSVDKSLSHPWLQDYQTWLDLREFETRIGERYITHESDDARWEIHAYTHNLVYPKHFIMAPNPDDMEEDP
Also: in the data inactive means no Kd found up to 30 µM.

Cyclin-dependent kinase 13, sequence (Q14004 whole entry): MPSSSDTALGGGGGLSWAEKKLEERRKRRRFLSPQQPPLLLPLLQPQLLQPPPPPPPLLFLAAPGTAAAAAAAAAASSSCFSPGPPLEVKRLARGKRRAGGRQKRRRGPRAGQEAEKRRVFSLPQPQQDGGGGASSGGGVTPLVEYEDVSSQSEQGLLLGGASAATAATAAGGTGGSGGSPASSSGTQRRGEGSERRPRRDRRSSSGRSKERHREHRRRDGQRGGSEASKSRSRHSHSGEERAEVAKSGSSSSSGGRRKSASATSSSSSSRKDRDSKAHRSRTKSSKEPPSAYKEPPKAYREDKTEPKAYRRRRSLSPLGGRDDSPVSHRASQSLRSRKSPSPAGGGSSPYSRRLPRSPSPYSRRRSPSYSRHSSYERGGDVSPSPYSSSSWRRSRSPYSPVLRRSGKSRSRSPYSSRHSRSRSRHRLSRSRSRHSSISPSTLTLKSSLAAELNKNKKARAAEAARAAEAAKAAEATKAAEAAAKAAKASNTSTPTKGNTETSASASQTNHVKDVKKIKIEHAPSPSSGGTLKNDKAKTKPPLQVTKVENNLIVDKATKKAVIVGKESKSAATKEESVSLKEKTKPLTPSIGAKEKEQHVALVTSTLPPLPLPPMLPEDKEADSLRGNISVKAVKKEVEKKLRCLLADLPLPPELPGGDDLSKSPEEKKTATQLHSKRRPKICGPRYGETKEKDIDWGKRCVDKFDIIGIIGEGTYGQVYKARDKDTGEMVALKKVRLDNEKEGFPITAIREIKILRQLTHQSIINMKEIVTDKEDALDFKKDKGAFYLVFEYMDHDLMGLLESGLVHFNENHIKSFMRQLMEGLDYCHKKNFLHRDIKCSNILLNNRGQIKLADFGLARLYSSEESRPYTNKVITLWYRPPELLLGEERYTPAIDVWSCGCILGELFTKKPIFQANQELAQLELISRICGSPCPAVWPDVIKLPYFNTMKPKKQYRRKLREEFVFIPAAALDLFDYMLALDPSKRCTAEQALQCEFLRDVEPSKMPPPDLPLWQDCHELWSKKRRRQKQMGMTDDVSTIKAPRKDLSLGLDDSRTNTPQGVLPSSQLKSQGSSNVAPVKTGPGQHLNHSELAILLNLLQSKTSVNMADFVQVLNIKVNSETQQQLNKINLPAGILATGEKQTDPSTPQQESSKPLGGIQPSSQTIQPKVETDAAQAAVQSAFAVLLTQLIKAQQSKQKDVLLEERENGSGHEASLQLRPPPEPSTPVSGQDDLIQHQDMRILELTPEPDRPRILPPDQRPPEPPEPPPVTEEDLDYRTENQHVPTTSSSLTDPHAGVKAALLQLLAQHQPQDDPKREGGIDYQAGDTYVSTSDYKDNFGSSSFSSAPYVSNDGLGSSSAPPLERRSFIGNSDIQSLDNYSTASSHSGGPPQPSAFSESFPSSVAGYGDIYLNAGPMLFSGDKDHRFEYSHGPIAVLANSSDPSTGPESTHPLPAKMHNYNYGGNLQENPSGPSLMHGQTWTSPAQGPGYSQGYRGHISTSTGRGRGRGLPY
Eukaryotic translation initiation factor 2-alpha kinase 1, sequence (Q9BQI3 whole entry): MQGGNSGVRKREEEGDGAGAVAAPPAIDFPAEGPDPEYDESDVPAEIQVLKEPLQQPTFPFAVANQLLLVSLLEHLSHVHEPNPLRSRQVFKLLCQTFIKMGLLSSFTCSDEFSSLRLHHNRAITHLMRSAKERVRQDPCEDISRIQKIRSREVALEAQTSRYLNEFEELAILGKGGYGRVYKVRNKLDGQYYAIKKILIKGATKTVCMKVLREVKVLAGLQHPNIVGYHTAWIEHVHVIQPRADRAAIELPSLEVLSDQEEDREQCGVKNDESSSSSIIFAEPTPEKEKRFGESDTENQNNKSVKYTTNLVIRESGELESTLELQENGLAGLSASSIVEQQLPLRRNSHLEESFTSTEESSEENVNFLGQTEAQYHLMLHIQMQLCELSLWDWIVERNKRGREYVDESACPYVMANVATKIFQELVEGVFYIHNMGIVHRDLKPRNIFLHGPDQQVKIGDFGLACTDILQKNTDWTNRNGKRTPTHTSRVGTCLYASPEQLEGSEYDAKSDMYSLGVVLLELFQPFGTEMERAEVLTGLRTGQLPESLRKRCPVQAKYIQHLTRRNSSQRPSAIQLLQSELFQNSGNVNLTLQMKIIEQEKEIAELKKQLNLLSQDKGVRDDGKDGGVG
26S proteasome regulatory subunit 6B, sequence (P43686 whole entry): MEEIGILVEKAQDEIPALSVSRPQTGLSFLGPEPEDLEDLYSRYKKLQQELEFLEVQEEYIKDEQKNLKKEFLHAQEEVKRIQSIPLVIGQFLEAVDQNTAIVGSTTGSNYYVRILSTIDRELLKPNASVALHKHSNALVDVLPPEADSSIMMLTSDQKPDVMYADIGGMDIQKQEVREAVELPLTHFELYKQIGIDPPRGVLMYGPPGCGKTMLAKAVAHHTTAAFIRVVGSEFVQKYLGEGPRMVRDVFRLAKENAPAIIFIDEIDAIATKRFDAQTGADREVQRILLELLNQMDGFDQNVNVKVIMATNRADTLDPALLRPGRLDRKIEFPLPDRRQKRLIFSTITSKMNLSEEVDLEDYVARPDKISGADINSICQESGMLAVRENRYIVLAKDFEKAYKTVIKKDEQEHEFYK

The Kd is a measure of binding affinity in units of concentration. Take `COc1cc2ncnc(Nc3ccc(F)c(Cl)c3)c2cc1NC(=O)/C=C/CN1CCCCC1` [DACOMITINIB ANHYDROUS]: the Kd (in assay [1]; in assay [2]; in assay [3]; in assay [4]; in assay [5]; at Ephrin type-B receptor 2) was > 30 µM (inactive) in each case. Besides, the Kd in assay [6] and in assay [7] was > 30 µM (inactive) in each case.
In the case of `COCCN1CCN(Cc2ccc(-c3n[nH]c4c3C(=O)c3c(NC(=O)NN5CCOCC5)cccc3-4)cc2)CC1` [RGB-286638], the Kd in assay [1] is > 30 µM (inactive); in assay [2], > 30 µM (inactive); in assay [3], 3.8 µM (active); in assay [4], > 30 µM (inactive); in assay [5], > 30 µM (inactive); on Ephrin type-B receptor 2, > 30 µM (inactive). For the same compound, the Kd was 1.01 µM (active) in assay [6] and 0.297 µM (active) in assay [7].
For the compound `O=C(NOC[C@H](O)CO)c1ccc(F)c(F)c1Nc1ccc(I)cc1F` [MIRDAMETINIB], the Kd (in assay [1]; in assay [2]; in assay [3]; in assay [4]; in assay [5]; at Ephrin type-B receptor 2) was > 30 µM (inactive) each time. In addition, the Kd in assay [6] and in assay [7] was > 30 µM (inactive) each time.
For the compound `CNC(=O)c1cccc(-c2ccc3c(N4CCOC[C@@H]4C)nc(N4CCOC[C@@H]4C)nc3n2)c1` [VISTUSERTIB], the Kd (in assay [1]; in assay [2]; in assay [3]; in assay [4]; in assay [5]; at Ephrin type-B receptor 2) was > 30 µM (inactive) each time. Moreover, the Kd in assay [6] and in assay [7] was > 30 µM (inactive) each time.
As for `COc1cc2nccc(Oc3ccc(NC(=O)C4(C(=O)Nc5ccc(F)cc5)CC4)cc3)c2cc1OC` [CABOZANTINIB], the Kd (in assay [1]; in assay [2]; in assay [3]; in assay [4]; in assay [5]; at Ephrin type-B receptor 2) was > 30 µM (inactive) in each case. Further, the Kd in assay [6] and in assay [7] was > 30 µM (inactive) each time.
`Cc1cc(Nc2nc(N[C@@H](C)c3ncc(F)cn3)ncc2Cl)n[nH]1` [AZD-1480]: the Kd (in assay [1]; in assay [2]; in assay [3]; in assay [4]; in assay [5]; on Ephrin type-B receptor 2) was > 30 µM (inactive) in each case. For the same compound, the Kd in assay [6] and in assay [7] was > 30 µM (inactive) throughout.
For `O=C(Nc1ccc(OC(F)(F)F)cc1)c1sccc1NCc1ccnc2ccccc12` [OSI-930], the Kd (in assay [1]; in assay [2]; in assay [3]; in assay [4]; in assay [5]; on Ephrin type-B receptor 2) was > 30 µM (inactive) in each case. Also, the Kd in assay [6] and in assay [7] was > 30 µM (inactive) in each case.
As to `C=CCN(/C=C1/C(=O)O[C@H](COC)[C@@]2(C)C1=C(O)C(=O)C1=C2[C@H](OC(C)=O)C[C@]2(C)C(=O)CC[C@@H]12)CC=C` [SONOLISIB], the Kd (in assay [1]; in assay [2]; in assay [3]; in assay [4]; in assay [5]; at Ephrin type-B receptor 2) was > 30 µM (inactive) throughout. Besides, the Kd in assay [6] and in assay [7] was > 30 µM (inactive) in each case.
Turning to `COc1cccc2cc(-c3nc([C@H]4CC[C@H](C(=O)O)CC4)n4ncnc(N)c34)[nH]c12` [OSI-027], the Kd in assay [1] is > 30 µM (inactive); in assay [2] it was 1.39 µM (active); in assay [3], > 30 µM (inactive); in assay [4] it was > 30 µM (inactive); in assay [5] it was > 30 µM (inactive); on Ephrin type-B receptor 2, > 30 µM (inactive). Besides, the Kd in assay [6] and in assay [7] was > 30 µM (inactive) in each case.
Consider `O=c1[nH]c([C@@H]2CCCN2)nc2c1oc1ccc(Cl)cc12`, for which the Kd (in assay [1]; in assay [2]; in assay [3]; in assay [4]; in assay [5]; on Ephrin type-B receptor 2) was > 30 µM (inactive) in each case. The Kd in assay [6] and in assay [7] was > 30 µM (inactive) each time.
As for `CN1CCN(c2nc(C3=C(c4c[nH]c5ccccc45)C(=O)NC3=O)c3ccccc3n2)CC1` [SOTRASTAURIN], the Kd (in assay [1]; in assay [2]; in assay [3]; in assay [4]; in assay [5]; at Ephrin type-B receptor 2) was > 30 µM (inactive) throughout. Further, the Kd in assay [6] and in assay [7] was > 30 µM (inactive) in each case.
Take `CCN1CCN(Cc2ccc(Nc3ncc(F)c(-c4cc(F)c5nc(C)n(C(C)C)c5c4)n3)nc2)CC1` [ABEMACICLIB]: the Kd in assay [1] is > 30 µM (inactive); in assay [2], > 30 µM (inactive); in assay [3], 4.84 µM (active); in assay [4] it was > 30 µM (inactive); in assay [5], > 30 µM (inactive); on Ephrin type-B receptor 2, > 30 µM (inactive). Besides, the Kd in assay [6] was > 30 µM (inactive); in assay [7], 1.84 µM (active).

These data come from ChEMBL document CHEMBL3991601, “The target landscape of clinical kinase drugs” (Science, 2017).
